In patent US20190380346A1, “METHOD OF IMPROVING HEALTH AND ROOTING OF HARDWOOD TREES” (Bayer CropScience LP, priority 2018, published 2019):

Legend:
[1] = system: hardwood trees; test: Growth Response for Post-Plant Treatments (Example 8), summary over treated species; format: in vivo; settings: post-plant (Table 8); all treated species except for Chinese chestnut
Experimental: (§1) Hybrid poplar seedlings were planted as stem cuttings.
(§2) Stem volume index is calculated as D^2H where D=groundline stem diameter and H=total height.

[2] = system: hardwood trees; test: Growth Response for Pre-Plant Treatments (Example 7), summary over treated species; format: in vivo; settings: pre-plant (Table 7); all treated species, with the exceptions of chestnut oak and Chinese chestnut
Experimental: as §1, §2

## Cc1ccc2c(c1)[C@H](Nc1nc(N)nc(C(C)F)n1)[C@@H](C)C2 (mixture of isomers) [indaziflam, N2-[(1R,2S)-2,3-dihydro-2,6-dimethyl-1H-inden-1-yl]-6-[(1RS)-1-fluoroethyl]-1,3,5-triazine-2,4-diamine]
[1]
  growth response: positive growth response
[2]
  growth response: positive growth response
